In patent publication US5202434A, “8a-aza-8a-homoerythromycin lactams” (Merck & Co., Inc., priority 1992, dated 1993):
In brackets after ≈: the same amount, converted by molar mass.

Experiments:
Assay in all cases: MIC, liquid turbidimetric microtiter broth method
Type in all cases: cell-based
[1] = tested on: Steptococcus pneumoniae CL 2883
Description: (§1) The compounds of formula (II) will show antibacterial activity against a range of aerobic Gram positive and negative bacteria as shown in the following Table. The assay employs a liquid turbidimetric microtiter method for determination of the minimum inhibitory concentration (MIC) in broth media. […] The MIC is generally not an absolute value but rather a concentration range that falls within a two-fold dilution limit. Generally, twelve two-fold dilutions of the test compound are employed with the initial concentration set at 128 mcg/ml.

Escherichia coli MB 4926 = details: MB4926
Description: as §1

[2] = tested on: Streptococcus viridans CL 2943; details: CL2943
Description: as §1

MIC [1]: ≤ 0.06 mg/L
MIC (Escherichia coli MB 4926): 4 mg/L (≈ 5.34 µM)
MIC [2]: 4 mg/L (≈ 5.34 µM)
Compound: CC[C@H]1OC(=O)[C@H](C)[C@@H](O[C@H]2C[C@@](C)(OC)[C@@H](O)[C@H](C)O2)[C@H](C)[C@@H](O[C@@H]2O[C@H](C)C[C@H](N(C)C)[C@H]2O)[C@](C)(O)C[C@@H](C)NC(=O)[C@H](C)[C@@H](O)[C@]1(C)O [8aaza-8a-homoerythromycin A, 8a-Aza-8a-homoerythromycin A]
